According to patent publication US4166864A, “Pesticidal unsymmetrical bis-arylcarbamate disulfide compounds” (Union Carbide Corporation, priority 1977, dated 1979):

Columns and labels:
Type in all cases: in vivo
[1] = test system: bean aphid (Aphis fabae Scop.); assay: Bean Aphid Foliage Spray Test; design: key: A: excellent control; B: partial control; C: no control; conditions: 500 ppm foliage spray, 24 hour holding period
Method: (§1) Suspensions of the test compounds were prepared by dissolving one gram of compound in 50 milliliters of acetone in which had been dissolved 0.1 gram (10 percent of the weight of compound) of an alkylphenoxy polyethoxyethanol surfactant, as an emulsifying or dispersing agent. The resulting solution was mixed into 150 milliliters of water to give roughly 200 milliliters of a suspension containing the compound in finely divided form. The thus-prepared stock suspension contained 0.5 percent by weight of compound. The test concentrations in parts per million by weight employed in the tests described hereinbelow were obtained by appropriate dilutions of the stock suspension with water. The test procedures were as follows:
Adults and nymphal stages of the bean aphid (Aphis fabae Scop.) reared on potted dwarf nasturtium plants at […] and 50-70 percent relative humidity, constituted the test insects. For testing purposes, the number of aphids per pot was standardized to 100-150 by trimming plants containing excess aphids.
The test compounds were formulated by diluting the stock suspension with water to give a suspension containing 500 parts of test compound per million parts of final formulation.
The potted plants (one pot per compound tested) infested with 100-150 aphids, were placed on a revolving turntable and sprayed with 100-110 milliliters of test compound formulation by use of a DeVilbiss spray gun set at 40 psig. air pressure. This application, which lasted 25 seconds, was sufficient to wet the plants to run-off. As a control, 100-110 milliliters of a water-acetone-emulsifier solution containing no test compound were also sprayed on infested plants. After spraying, the pots were placed on their sides on a sheet of white standard mimeograph paper which had been previously ruled to facilitate counting. Temperature and humidity in the test room during the 24 hour holding period were 65°-70° F. and 50-70 percent, respectively. Aphids which fell onto the paper and were unable to remain standing after being uprighted were considered dead. Aphids remaining on the plants were observed closely for movement and those which were unable to move the length of the body upon stimulation by prodding were considered dead. Percent mortality was recorded for various concentration levels.
(§2) In these tests the pesticidal activity of the compounds against aphid, mite, Southerm Armyworm, Bean Beetle and house fly was rated as follows: […]

[2] = test system: two-spotted mite (Tetranychus urticae Koch); assay: Mite Foliage Spray Test; design: key: A: excellent control; B: partial control; C: no control; conditions: 500 ppm foliage spray, six days
Method: as §1
Adults and nymphal stages of the two-spotted mite (Tetranychus urticae Koch), reared on Tendergreen bean plants at 80±5 percent relative humidity, were the test organisms. Infested leaves from a stock culture were placed on the primary leaves of two bean plants six to eight inches in height, growing in a two-and-a-half inch clay pot. 150-200 Mites, a sufficient number for testing, transferred from the excised leaves to the fresh plants in a period of twenty four hours. Following the twenty four hour transfer period, the excised leaves were removed from the infested plants. The test compounds were formulated by diluting the stock suspension with water to give a suspension containing 500 parts of test compound per million parts of final formulation. The potted plants (one pot per compound) were placed on a revolving turntable and sprayed with 100-110 milliliters of test compound formulation by use of a DeVilbiss spray gun set at 40 psig. air pressure. This application, which lasted 25 seconds, was sufficient to wet the plants to run-off. As a control, 100=110 milliliters of a water solution containing acetone and emulsifier in the same concentrations as the test compound formulation, but containing no test compound, were also sprayed on infested plants. The sprayed plants were held at 80±5 percent relative humidity for six days, after which a mortality count of motile forms was made. Microscopic examination for motile forms was made on the leaves of the test plants. Any individual which was capable of locomotion upon prodding was considered living. […]
as §2

[3] = test system: southern armyworm (Prodenia eridania, (Cram.)); assay: Southern Armyworm Leaf Spray Test; design: key: A: excellent control; B: partial control; C: no control; conditions: 500 ppm leaf spray, three days
Method: as §1
Larvae of the southern arymworm (Prodenia eridania, (Cram.)), reared on Tendergreen bean plants at a temperature of 80°±5° F. and a relative humidity of 50±5 percent, constituted the test insects.
The test compounds were formulated by diluting the stock suspension with water to give a suspension containing 500 parts of test compound per million parts of final formulation. Potted Tendergreen bean plants of standard height and age were placed on a revolving turntable and sprayed with 100-110 milliliters of test compound formulation by use of a DeVilbiss spray gun set at 10 psig air pressure. This application, which lasted 25 seconds, was sufficient to wet plants to run-off. As a control, 100-110 milliliters of a water-acetone-emulsifier solution containing no test compound were also sprayed on infested plants. When dry, the paired leaves were separated and each one was placed in a 9 centimeter Petri dish lined with moistened filter paper. Five randomly selected larvae were introduced into each dish and the dishes were closed. The closed dishes were labeled and held at 80°-85° F. for three days. Although the larvae could easily consume the whole leaf within twenty-four hours, no more food was added. Larvae which were unable to move the length of the body, even upon stimulation by prodding, were considered dead. Percent mortality was recorded for various concentration levels.
as §2

[4] = test system: Mexican bean beetle (Epilachna varivestis, Muls.); assay: Mexican Bean Beetle Leaf Spray Test; design: key: A: excellent control; B: partial control; C: no control; conditions: 500 ppm leaf spray, three days
Method: as §1
Fourth instar larvae of the Mexican bean beetle (Epilachna varivestis, Muls.), reared on Tendergreen bean plants at a temperature of 80°±5° F. and 50±5 percent relative humidity, were the test insects.
The test compounds were formulated by diluting the stock suspension with water to give a suspension containing 500 parts of test compound per million parts of final formulation. Potted Tendergreen bean plants of standard height and age were placed on a revolving turntable and sprayed with 100-110 milliliters of test compound formulation by use of a DeVilbiss spray gun set at 10 psig air pressure. This application, which lasted 25 seconds, was sufficient to wet plants to run-off. As a control, 100-110 milliliters of a water-acetone-emulsifier solution containing no test compound were also sprayed on infested plants. When dry, the paired leaves were separated and each was placed in a 9 centimeter Petri dish lined with moistened filter paper. Five randomly selected larvae were introduced into each dish, and the dishes were closed. The closed dishes were labeled and held at a temperature of 80°±5° F. for three days. Although the larvae could easily consume the leaf within 24 to 48 hours, no more food was added. Larvae which were unable to move the length of the body, even upon stimulation, were considered dead.
as §2

[5] = test system: house flies (Musca domestica, L.); assay: Fly Bait Test; design: key: A: excellent control; B: partial control; C: no control; conditions: 500 ppm in sugar-solution bait, twenty four hours
Method: as §1
Four to six day old adult house flies (Musca domestica, L.) reared according to the specifications of the Chemical Specialties Manufacturing Association (Blue Book, McNair-Dorland Co., N.Y. 1954; pages 243-244, 261) under controlled conditions of 80°±5° F. and 50±5 percent relative humidity, were the test insects. The flies were immobilized by anesthetizing with carbon dioxide and twenty five immobilized individuals, males and females, were transferred to a cage consisting of a standard food strainer about five inches in diameter which was inverted over a wrapping-paper-covered surface. The test compounds were formulated by diluting the stock suspension with a 10 percent (by weight) sugar solution to give a suspension containing 500 parts of test compound per million parts of final formulation, by weight. Ten milliliters of the test formulation were added to a souffle cup containing a one-inch square of an absorbent cotton pad. This bait cup was introduced and centered on the blotting paper under the food strainer prior to admitting the anesthetized flies. The caged flies were allowed to feed on the bait for twenty four hours, at a temperature of 80°±5° F. and the relative humidity of 50±5 percent.
as §2

Bean = assay: Phytotoxicity Test, bean; design: key: 1: no perceptible injury; 2: intermediate degrees of injury based upon the number and extent to which leaves were injured; 3: intermediate degrees of injury based upon the number and extent to which leaves were injured; 4: intermediate degrees of injury based upon the number and extent to which leaves were injured; 5: the plant was dead; conditions: 2500 ppm spray, rated after ten days
Method: (§3) Experiments were also conducted to determine the phytoxicity of representative compounds with respect to healthy fresh plants. Solutions of the compounds were prepared as described above to provide a concentration of 2500 parts per million of the test compound. The test plants were sprayed in accordance with the procedure described above for the Mite Foliage Spray Test so as to deliver approximately 100 milliliters of test solution to the leaves of each plant tested. The sprayed plants and controls were set aside for approximately one hour to allow the foliage to dry and were then placed in the greenhouse. After ten days the plants were visually inspected to determine the extent of foliage injury. A rating of 1 indicates no perceptible injury; 5 indicates the plant was dead and ratings of 2, 3 and 4 indicate intermediate degrees of injury based upon the number and extent to which leaves were injured.

Corn = assay: Phytotoxicity Test, corn; design: key: 1: no perceptible injury; 2: intermediate degrees of injury based upon the number and extent to which leaves were injured; 3: intermediate degrees of injury based upon the number and extent to which leaves were injured; 4: intermediate degrees of injury based upon the number and extent to which leaves were injured; 5: the plant was dead; conditions: 2500 ppm spray, rated after ten days
Method: as §3

Tomato = assay: Phytotoxicity Test, tomato; design: key: 1: no perceptible injury; 2: intermediate degrees of injury based upon the number and extent to which leaves were injured; 3: intermediate degrees of injury based upon the number and extent to which leaves were injured; 4: intermediate degrees of injury based upon the number and extent to which leaves were injured; 5: the plant was dead; conditions: 2500 ppm spray, rated after ten days
Method: as §3

Cotton = assay: Phytotoxicity Test, cotton; design: key: 1: no perceptible injury; 2: intermediate degrees of injury based upon the number and extent to which leaves were injured; 3: intermediate degrees of injury based upon the number and extent to which leaves were injured; 4: intermediate degrees of injury based upon the number and extent to which leaves were injured; 5: the plant was dead; conditions: 2500 ppm spray, rated after ten days
Method: as §3

Soybean = assay: Phytotoxicity Test, soybean; design: key: 1: no perceptible injury; 2: intermediate degrees of injury based upon the number and extent to which leaves were injured; 3: intermediate degrees of injury based upon the number and extent to which leaves were injured; 4: intermediate degrees of injury based upon the number and extent to which leaves were injured; 5: the plant was dead; conditions: 2500 ppm spray, rated after ten days
Method: as §3

Structure (SMILES) | Insecticidal activity rating, Aphid [1] | Miticidal activity rating, Mite [2] | Insecticidal activity rating, Southern Armyworm [3] | Insecticidal activity rating, Mexican Bean Beetle [4] | Insecticidal activity rating, Housefly [5] | Phytotoxicity, Bean (Bean) | Phytotoxicity, Corn (Corn) | Phytotoxicity, Tomato (Tomato) | Phytotoxicity, Cotton (Cotton) | Phytotoxicity, Soybean (Soybean)
C#CCOc1ccccc1OC(=O)N(C)SSN(C)C(=O)Oc1cccc2c1OC(C)(C)C2 | A | C | A | A | A | 1 | 1 | 1 | 1 | 2
CN(SSN(C)C(=O)Oc1cccc2ccccc12)C(=O)Oc1cccc2c1OC(C)(C)C2 | A | C | A | A | A | 1 | 1 | 1 | 1 | 1
CSc1ccc(OC(=O)N(C)SSN(C)C(=O)Oc2cccc3c2OC(C)(C)C3)cc1C | A | C | A | A | A | 1 | 1 | 1 | 1 | 1
Cc1cc(C)cc(OC(=O)N(C)SSN(C)C(=O)Oc2cccc3c2OC(C)(C)C3)c1 | A | C | A | A | A | 1 | 1 | 1 | 1 | 1
CN(SSN(C)C(=O)Oc1cccc2c1OC(C)(C)C2)C(=O)Oc1cccc(N(C)C)c1 | A | C | A | A | A | 1 | 1 | 1 | 1 | 1
CN(SSN(C)C(=O)Oc1cccc2c1OC(C)(C)C2)C(=O)Oc1ccc2c(c1)OCO2 | A | C | A | A | A | 1 | 1 | 1 | 1 | 1
CN(SSN(C)C(=O)Oc1ccccc1C1SCCS1)C(=O)Oc1ccc(C(C)(C)C)cc1 | A | C | C | A | A | 1 | 1 | 1 | 1 | 1
